Experimental data: patent publication US8952024B2, “Herbicidal pyrimidone derivatives” (E I du Pont de Nemours and Company, priority 2009, dated 2015)

How the values were obtained:
Assay in all cases: Test B pre-/postemergence plant response
Type in all cases: in vivo
[1] = test system: kochia (Kochia scoparia); conditions: Postemergence
Summary of the method: (§1)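 Pre-em in loam/sand; post-em at 1–4 leaf (2–18 cm) in peat mix. Solvent + surfactant formulation. Greenhouse 13–15 d; visual % control vs untreated, 0–100.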

[2] = test system: velvetleaf (Abutilon theophrasti); conditions: Postemergence
Summary of the method: as §1

[3] = test system: woolly cupgrass (Eriochloa villosa); conditions: Postemergence
Summary of the method: as §1

[4] = test system: downy bromegrass (Bromus tectorum); conditions: for Plant response rating, Bromegrass, Downy: Postemergence
Summary of the method: as §1

[5] = test system: pigweed (Amaranthus retroflexus); conditions: Postemergence
Summary of the method: as §1

[6] = test system: yellow nutsedge (Cyperus esculentus); conditions: Postemergence
Summary of the method: as §1

[7] = test system: blackgrass (Alopecurus myosuroides); conditions: for Plant response rating, Blackgrass: Postemergence
Summary of the method: as §1

[8] = test system: lambsquarters (Chenopodium album); conditions: Postemergence
Summary of the method: as §1

[9] = test system: corn (Zea mays); conditions: Postemergence
Summary of the method: as §1

[10] = test system: ragweed (common ragweed, Ambrosia elatior); conditions: Postemergence
Summary of the method: as §1

[11] = test system: wheat (Triticum aestivum); conditions: Postemergence
Summary of the method: as §1

[12] = test system: johnsongrass (Sorghum halepense); conditions: Postemergence
Summary of the method: as §1

[13] = test system: Surinam grass (Brachiaria decumbens); conditions: Postemergence
Summary of the method: as §1

[14] = test system: Italian ryegrass (Lolium multiflorum); conditions: Postemergence
Summary of the method: as §1

[15] = test system: wild oat (Avena fatua); conditions: Postemergence
Summary of the method: as §1

[16] = test system: soybean (Glycine max); conditions: Postemergence
Summary of the method: as §1

[17] = test system: goosegrass (Eleusine indica); conditions: Postemergence
Summary of the method: as §1

[18] = test system: large crabgrass (Digitaria sanguinalis); conditions: Postemergence
Summary of the method: as §1

[19] = 31 g ai/ha, 0 to 100 scale (0 no effect, 100 complete control)
[20] = 125 g ai/ha, scale 0 to 100 (0 no effect, 100 complete control)
[21] = 250 g ai/ha, scale 0 to 100 (0 no effect, 100 complete control), 13 to 15 days
[22] = 62 g ai/ha, postemergence, 0 is no effect, 100 is complete control, 13 to 15 days

## O=C1CCCC(O)=C1C(=O)c1cnc(C2CC2)n(C2CCCCC2)c1=O [Compound 160]
[1]; [19]
  Plant response rating, Kochia: 90
[1]; [20]
  Plant response rating, Kochia: 100
[1]; [21]
  Plant response rating, Kochia: 100
[2]; [19]
  Plant response rating, Velvetleaf: 90
[2]; [20]
  Plant response rating, Velvetleaf: 100
[2]; [21]
  Plant response rating, Velvetleaf: 100
[3]; [19]
  Plant response rating, Cupgrass, Woolly: 65
[3]; [20]
  Plant response rating, Cupgrass, Woolly: 85
[3]; [21]
  Plant response rating, Cupgrass, Woolly: 95
[4]; [22]
  Bromegrass, Downy plant response rating (0 to 100 scale): 5
[4]; [19]
  Plant response rating, Bromegrass, Downy: 0
[4]; [20]
  Plant response rating, Bromegrass, Downy: 50
[4]; [21]
  Plant response rating, Bromegrass, Downy: 55
[5]; [19]
  Plant response rating, Pigweed: 90
[5]; [20]
  Plant response rating, Pigweed: 100
[5]; [21]
  Plant response rating, Pigweed: 100
[6]; [19]
  Plant response rating, Nutsedge, Yellow: 65
[6]; [20]
  Plant response rating, Nutsedge, Yellow: 80
[6]; [21]
  Plant response rating, Nutsedge, Yellow: 80
[7]; [22]
  Blackgrass plant response rating (0 to 100 scale): 10
[7]; [19]
  Plant response rating, Blackgrass: 5
[7]; [20]
  Plant response rating, Blackgrass: 20
[7]; [21]
  Plant response rating, Blackgrass: 25
[8]; [19]
  Plant response rating, Lambsquarters: 95
[8]; [20]
  Plant response rating, Lambsquarters: 98
[8]; [21]
  Plant response rating, Lambsquarters: 98
[9]; [19]
  Plant response rating, Corn: 15
[9]; [20]
  Plant response rating, Corn: 50
[9]; [21]
  Plant response rating, Corn: 60
[10]; [19]
  Plant response rating, Ragweed: 80
[10]; [20]
  Plant response rating, Ragweed: 98
[10]; [21]
  Plant response rating, Ragweed: 98
[11]; [19]
  Plant response rating, Wheat: 10
[11]; [20]
  Plant response rating, Wheat: 40
[11]; [21]
  Plant response rating, Wheat: 45
[12]; [19]
  Plant response rating, Johnsongrass: 45
[12]; [20]
  Plant response rating, Johnsongrass: 65
[12]; [21]
  Plant response rating, Johnsongrass: 75
[13]; [19]
  Plant response rating, Surinam Grass: 40
[13]; [20]
  Plant response rating, Surinam Grass: 60
[13]; [21]
  Plant response rating, Surinam Grass: 75
[14]; [19]
  Plant response rating, Ryegrass, Italian: 0
[14]; [20]
  Plant response rating, Ryegrass, Italian: 35
[14]; [21]
  Plant response rating, Ryegrass, Italian: 35
[15]; [19]
  Plant response rating, Oat, Wild: 10
[15]; [20]
  Plant response rating, Oat, Wild: 50
[15]; [21]
  Plant response rating, Oat, Wild: 60
[16]; [19]
  Plant response rating, Soybean: 85
[16]; [20]
  Plant response rating, Soybean: 98
[16]; [21]
  Plant response rating, Soybean: 98
[17]; [19]
  Plant response rating, Goosegrass: 80
[17]; [20]
  Plant response rating, Goosegrass: 90
[17]; [21]
  Plant response rating, Goosegrass: 90
[18]; [19]
  Plant response rating, Crabgrass, Large: 80
[18]; [20]
  Plant response rating, Crabgrass, Large: 95
[18]; [21]
  Plant response rating, Crabgrass, Large: 95
